Laboratory results from ChEMBL document CHEMBL5247641, “Discovery of Potent DYRK2 Inhibitors with High Selectivity, Great Solubility, and Excellent Safety Properties for the Treatment of Prostate Cancer” (J Med Chem, 2023).
Each block holds one compound with its values, some of them ahead of it. Calls of active or inactive are those of the source. The calls are words filed in the database; no cut-off is given here.

What was measured:
[1] = target: T1, Dual specificity tyrosine-phosphorylation-regulated kinase 2 (Homo sapiens, UniProt Q92630); test: Inhibition of hexa His-tagged DYRK2 (72 to 479 residues) (unknown origin) expressed in Escherichia coli BL21 (DE3) assessed as substrate phosphorylation using 4E-BP1 as substrate in presence of [gamma33-P]ATP incubated for 2 hrs by scintillation counter analysis
T1 sequence (Q92630 whole entry): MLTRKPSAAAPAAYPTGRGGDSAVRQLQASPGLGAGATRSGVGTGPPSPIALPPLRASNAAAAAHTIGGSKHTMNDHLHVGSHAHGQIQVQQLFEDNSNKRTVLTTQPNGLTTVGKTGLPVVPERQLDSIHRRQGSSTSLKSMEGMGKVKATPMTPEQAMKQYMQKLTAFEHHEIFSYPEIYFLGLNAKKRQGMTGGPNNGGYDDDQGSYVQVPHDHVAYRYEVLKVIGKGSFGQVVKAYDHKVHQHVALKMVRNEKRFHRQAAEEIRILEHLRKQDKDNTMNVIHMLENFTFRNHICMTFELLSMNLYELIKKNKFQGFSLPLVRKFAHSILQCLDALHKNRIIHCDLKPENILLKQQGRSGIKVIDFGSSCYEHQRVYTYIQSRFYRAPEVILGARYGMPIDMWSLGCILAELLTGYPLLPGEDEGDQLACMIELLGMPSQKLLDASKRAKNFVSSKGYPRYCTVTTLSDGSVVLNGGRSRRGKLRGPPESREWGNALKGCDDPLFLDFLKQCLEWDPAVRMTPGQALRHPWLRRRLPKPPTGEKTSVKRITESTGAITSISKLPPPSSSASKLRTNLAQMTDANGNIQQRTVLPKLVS

[2] = test system: DU-145; test: Induction of cell cycle arrest in human DU-145 cells assessed as accumulation of cells at G1 phase at 40 uM incubated for 24 hrs by propidium iodide based flow cytometric analysis (Rvb= 53.46%); format: functional
[3] = test system: DU-145; test: Antitumor activity against human DU-145 xenografted in BALB/c nude mouse assessed as tumor growth inhibition at 100 mg/kg,po qd for 21 days; format: functional, organism-based; conditions: time 21.0 day
[4] = test system: DU-145; test: Induction of cell cycle arrest in human DU-145 cells assessed as accumulation of cells at G2 phase at 40 uM incubated for 24 hrs by propidium iodide based flow cytometric analysis (Rvb= 17.52%); format: functional
[5] = test system: DU-145; test: Induction of cell cycle arrest in human DU-145 cells assessed as accumulation of cells at S phase at 40 uM incubated for 24 hrs by propidium iodide based flow cytometric analysis (Rvb= 29.02%); format: functional
[6] = test system: CWR22R; test: Induction of apoptosis in human 22Rv1 cells assessed as apoptotis rate at 40 uM incubated for 24 hrs by Annexin V-FITC and PI staining based flow cytometry (Rvb= 3.08%); format: functional
[7] = test system: CWR22R; test: Induction of cell cycle arrest in human 22Rv1 cells assessed as accumulation of cells at G1 phase at 40 uM incubated for 24 hrs by propidium iodide based flow cytometric analysis (Rvb= 55.28%); format: functional
[8] = test system: CWR22R; test: Induction of cell cycle arrest in human 22Rv1 cells assessed as accumulation of cells at S phase at 40 uM incubated for 24 hrs by propidium iodide based flow cytometric analysis (Rvb=20.51 %); format: functional
[9] = test system: CWR22R; test: Induction of cell cycle arrest in human 22Rv1 cells assessed as accumulation of cells at G2 phase at 40 uM incubated for 24 hrs by propidium iodide based flow cytometric analysis (Rvb=24.21 %); format: functional
[10] = test system: DU-145; test: Induction of apoptosis in human DU-145 cells assessed as apoptotis rate at 40 uM incubated for 24 hrs by Annexin V-FITC and PI staining based flow cytometry (Rvb= 4.36%); format: functional
[11] = target: T1, Dual specificity tyrosine-phosphorylation-regulated kinase 2; test: Inhibition of human GST-tagged DYRK2 expressed in Escherichia coli BL21 (DE3) using woodtide as substrate in presence of [gamma33-P]ATP incubated for 30 mins by Scintillation counter analysis

Compound: Cc1cnc(Nc2ccc(CN3CCN(C(=O)OC(C)(C)C)CC3)cn2)nc1-c1ccc2scnc2c1
- IC50 [1]: > 10000 nM

Compound: CNC(=O)c1ccc(N2C(=S)N(c3ccc(C#N)c(C(F)(F)F)c3)C(=O)C2(C)C)cc1F [ENZALUTAMIDE]
- Activity [2]: 56.68%
- Activity [3]: Active
- Activity [4]: 16.78%
- Activity [5]: 26.54%
- Activity [6]: 5.85%
- Activity [7]: 62.89%
- Activity [8]: 15.68%
- Activity [9]: 21.43%
- Activity [10]: 8.01%

Compound: O=C(c1ccc(Nc2ncc(F)c(-c3ccc4scnc4c3)n2)nc1)N1CCN(C(=O)C2CC2)CC1
- IC50 [1]: 33 nM

Other lines, results leading:

- IC50 [1]: 16 nM
Compound: CC(C)(C)OC(=O)N1CCN(C(=O)c2ccc(Nc3ncc(F)c(-c4ccc5scnc5c4)n3)cn2)CC1

- IC50 [1]: > 10000 nM
Compound: COc1cnc(Nc2ccc(CN3CCN(C(=O)OC(C)(C)C)CC3)cn2)nc1-c1ccc2scnc2c1

- IC50 [1]: > 10000 nM
Compound: CC(C)(C)OC(=O)N1CCN(Cc2ccc(Nc3nccc(-c4ccc5scnc5c4)n3)nc2)CC1

- IC50 [1]: > 10000 nM
Compound: CC(C)(C)OC(=O)N1CCN(Cc2ccc(Nc3ncc(F)c(-c4ccc5scnc5c4)n3)nc2)CC1

- IC50 [11]: 2.5 nM
Compound: COc1cc(/C=C/C(=O)CC(=O)/C=C/c2ccc(O)c(OC)c2)ccc1O [CURCUMIN]
